# According to US12544391B2, “CD73 inhibitors” (ORIC Pharmaceuticals, Inc., priority 2019, dated 2026):
# Biological target: T1, CD73 (Homo sapiens, UniProt P21589)
# T1 sequence (P21589 27-549): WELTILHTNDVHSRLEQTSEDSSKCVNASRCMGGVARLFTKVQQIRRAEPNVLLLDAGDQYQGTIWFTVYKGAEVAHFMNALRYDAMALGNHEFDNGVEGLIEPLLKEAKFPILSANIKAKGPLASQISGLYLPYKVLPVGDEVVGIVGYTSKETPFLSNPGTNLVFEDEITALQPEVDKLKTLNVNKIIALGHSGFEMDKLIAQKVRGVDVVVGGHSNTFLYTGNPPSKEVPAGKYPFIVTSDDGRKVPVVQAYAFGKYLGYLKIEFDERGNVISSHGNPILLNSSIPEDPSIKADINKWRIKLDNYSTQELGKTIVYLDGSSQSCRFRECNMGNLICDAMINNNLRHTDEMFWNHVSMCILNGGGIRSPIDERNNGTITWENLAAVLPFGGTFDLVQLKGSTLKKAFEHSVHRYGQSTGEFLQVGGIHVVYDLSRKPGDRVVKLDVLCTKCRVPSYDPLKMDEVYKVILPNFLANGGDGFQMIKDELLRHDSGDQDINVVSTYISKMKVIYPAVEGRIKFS
# Assay: CD73 biochemical assay, Malachite Green detection of AMP hydrolysis
# Settings: CD73 320 pM, AMP 15 μM, Malachite Green readout
# Experimental: Assay Reaction Conditions
# • Assay Volume: 70 μl • Reaction Volume: 50 μl • CD73: 0.3208 nM • AMP: 15 μM • Assay Buffer: 2 5 mM Tris-HCL, pH 7.4, 0.01% Brij-35, 0.01% BSA, 5 mM MgCl2 Assay Procedure:
# A clear 384 well plate was used in this assay.
# Made dose titration of testing compounds in assay buffer, 10 points ½ log titrations in duplicates starting at 100 μM. Total volume for each well was 25 μl, with CD73 then added to each well for a final concentration of 320 pM. The solution was then incubated at RT for 15 min. 25 μl of AMP was added to each well for a final concentration of 15 μM, and then incubated at rt for 10 min. 10 μl of Malachite Green Reagent A was then added and allowed to incubate at rt for 10 min. 10 μl of Malachite Green Reagent B was then added and allowed to incubate at rt for 45 min. The absorbance for each sample was read on an Envision plate reader using excitation filter: Cy5 […].
# The ability of the compounds disclosed herein to inhibit CD73 activity was quantified and the respective IC50 values were determined. Table 2 provides the biochemical IC50 values of compounds disclosed herein.
row,SMILES,IC50 [nM]
1,"O=C(O)COCC(CO)(OC[C@H]1O[C@@H](c2ccc3c(NC4CCCC4)nc(Cl)nn23)[C@H](O)[C@@H]1O)P(=O)(O)O (stereo partly drawn) [Example 23, 2-(2-(((2R,3S,4R,5S)-5-(2-chloro-4-(cyclopentylamino)pyrrolo[2,1-f][1,2,4]triazin-7-yl)-3,4-dihydroxytetrahydrofuran-2-yl)methoxy)-3-hydroxy-2-phosphonopropoxy)acetic acid]",0.5 to 1
2,"CCOC(=O)COCC(CO)(OC[C@H]1O[C@@H](c2ccc3c(NC4CCCC4)nc(Cl)nn23)[C@H](O)[C@@H]1O)P(=O)(O)O (stereo partly drawn) [Example 24, (2-(((2R,3S,4R,5S)-5-(2-chloro-4-(cyclopentylamino)pyrrolo[2,1-f][1,2,4]triazin-7-yl)-3,4-dihydroxytetrahydrofuran-2-yl)methoxy)-1-(2-ethoxy-2-oxoethoxy)-3-hydroxypropan-2-yl)phosphonic acid]",1 to 100
3,"COC[C@](COCC(=O)O)(OC[C@H]1O[C@@H](c2ccc3c(NC4CCCC4)nc(Cl)nn23)[C@H](O)[C@@H]1O)P(=O)(O)O [Example 25, 2-((S)-2-(((2R,3S,4R,5S)-5-(2-chloro-4-(cyclopentylamino)pyrrolo[2,1-f][1,2,4]triazin-7-yl)-3,4-dihydroxytetrahydrofuran-2-yl)methoxy)-3-methoxy-2-phosphonopropoxy)acetic acid]",≤ 0.5
4,"CCOC(=O)COC[C@@](COC)(OC[C@H]1O[C@@H](c2ccc3c(NC4CCCC4)nc(Cl)nn23)[C@H](O)[C@@H]1O)P(=O)(O)O [Example 26, ((S)-2-(((2R,3S,4R,5S)-5-(2-chloro-4-(cyclopentylamino)pyrrolo[2,1-f][1,2,4]triazin-7-yl)-3,4-dihydroxytetrahydrofuran-2-yl)methoxy)-1-(2-ethoxy-2-oxoethoxy)-3-methoxypropan-2-yl)phosphonic acid]",≤ 0.5
5,"O=P(O)(O)C(CO)(CO)OC[C@H]1O[C@@H](c2ccc3c(NCc4ccccc4Cl)nc(Cl)nn23)[C@H](O)[C@@H]1O [Example 27, (2-(((2R,3S,4R,5S)-5-(2-chloro-4-((2-chlorobenzyl)amino)pyrrolo[2,1-f][1,2,4]triazin-7-yl)-3,4-dihydroxytetrahydrofuran-2-yl)methoxy)-1,3-dihydroxypropan-2-yl)phosphonic acid]",1 to 100
6,"O=P(O)(O)C(COCc1nnn[nH]1)(COCc1nnn[nH]1)OC[C@H]1O[C@@H](c2ccc3c(NC4CCCC4)nc(Cl)nn23)[C@H](O)[C@@H]1O [Example 28, (1,3-bis((1H-tetrazol-5-yl)methoxy)-2-(((2R,3S,4R,5S)-5-(2-chloro-4-(cyclopentylamino)pyrrolo[2,1-f][1,2,4]triazin-7-yl)-3,4-dihydroxytetrahydrofuran-2-yl)methoxy)propan-2-yl)phosphonic acid]",≤ 0.5
7,"C[C@@]1(c2ccc3c(NC4CCCC4)nc(Cl)nn23)O[C@H](COC(CO)(COCc2nnn[nH]2)P(=O)(O)O)[C@@H](O)[C@H]1O (stereo partly drawn) [Example 29, (1-((1H-tetrazol-5-yl)methoxy)-2-(((2R,3S,4R,5S)-5-(2-chloro-4-(cyclopentylamino)pyrrolo[2,1-f][1,2,4]triazin-7-yl)-3,4-dihydroxy-5-methyltetrahydrofuran-2-yl)methoxy)-3-hydroxypropan-2-yl)phosphonic acid]",100 to 1000
8,"COCC(COC)(OC[C@H]1O[C@@H](c2ccc3c(NC4CCCC4)nc(Cl)nn23)[C@H](O)[C@@H]1O)P(=O)(O)O [Example 30, (2-(((2R,3S,4R,5S)-5-(2-chloro-4-(cyclopentylamino)pyrrolo[2,1-f][1,2,4]triazin-7-yl)-3,4-dihydroxytetrahydrofuran-2-yl)methoxy)-1,3-dimethoxypropan-2-yl)phosphonic acid]",≤ 0.5
9,"COC[C@@](C)(OC[C@H]1O[C@@H](c2ccc3c(NC4CCCC4)nc(Cl)nn23)[C@H](O)[C@@H]1O)P(=O)(O)O [Example 31, ((S)-2-(((2R,3S,4R,5S)-5-(2-chloro-4-(cyclopentylamino)pyrrolo[2,1-f][1,2,4]triazin-7-yl)-3,4-dihydroxytetrahydrofuran-2-yl)methoxy)-1-methoxypropan-2-yl)phosphonic acid]",1 to 100
10,"COC[C@](C)(OC[C@H]1O[C@@H](c2ccc3c(NC4CCCC4)nc(Cl)nn23)[C@H](O)[C@@H]1O)P(=O)(O)O [Example 32, ((R)-2-(((2R,3S,4R,5S)-5-(2-chloro-4-(cyclopentylamino)pyrrolo[2,1-f][1,2,4]triazin-7-yl)-3,4-dihydroxytetrahydrofuran-2-yl)methoxy)-1-methoxypropan-2-yl)phosphonic acid]",≤ 0.5
11,"C[C@](CO)(OC[C@H]1O[C@@H](c2ccc3c(NC4CCCC4)nc(Cl)nn23)[C@H](O)[C@@H]1O)P(=O)(O)O [Example 33, ((S)-2-(((2R,3S,4R,5S)-5-(2-chloro-4-(cyclopentylamino)pyrrolo[2,1-f][1,2,4]triazin-7-yl)-3,4-dihydroxytetrahydrofuran-2-yl)methoxy)-1-hydroxypropan-2-yl)phosphonic acid]",1 to 100
12,"C[C@@](CO)(OC[C@H]1O[C@@H](c2ccc3c(NC4CCCC4)nc(Cl)nn23)[C@H](O)[C@@H]1O)P(=O)(O)O [Example 34, ((R)-2-(((2R,3S,4R,5S)-5-(2-chloro-4-(cyclopentylamino)pyrrolo[2,1-f][1,2,4]triazin-7-yl)-3,4-dihydroxytetrahydrofuran-2-yl)methoxy)-1-hydroxypropan-2-yl)phosphonic acid]",0.5 to 1
13,"O=P(O)(O)[C@](COCc1nn[nH]n1)(COCC1CC1)OC[C@H]1O[C@@H](c2ccc3c(NC4CCCC4)nc(Cl)nn23)[C@H](O)[C@@H]1O [Example 35, ((S)-1-((2H-tetrazol-5-yl)methoxy)-2-(((2R,3S,4R,5S)-5-(2-chloro-4-(cyclopentylamino)pyrrolo[2,1-f][1,2,4]triazin-7-yl)-3,4-dihydroxytetrahydrofuran-2-yl)methoxy)-3-(cyclopropylmethoxy)propan-2-yl)phosphonic acid]",≤ 0.5
14,"C[C@@]1(c2ccc3c(NC4CCCC4)nc(Cl)nn23)O[C@H](CO[C@@](CO)(COCc2nn[nH]n2)P(=O)(O)O)[C@@H](O)[C@H]1O [Example 36, ((R)-1-((2H-tetrazol-5-yl)methoxy)-2-(((2R,3S,4R,5S)-5-(2-chloro-4-(cyclopentylamino)pyrrolo[2,1-f][1,2,4]triazin-7-yl)-3,4-dihydroxy-5-methyltetrahydrofuran-2-yl)methoxy)-3-hydroxypropan-2-yl)phosphonic acid]",100 to 1000
15,"C[C@@]1(c2ccc3c(NC4CCCC4)nc(Cl)nn23)O[C@H](CO[C@](CO)(COCc2nn[nH]n2)P(=O)(O)O)[C@@H](O)[C@H]1O [Example 37, ((S)-1-((2H-tetrazol-5-yl)methoxy)-2-(((2R,3S,4R,5S)-5-(2-chloro-4-(cyclopentylamino)pyrrolo[2,1-f][1,2,4]triazin-7-yl)-3,4-dihydroxy-5-methyltetrahydrofuran-2-yl)methoxy)-3-hydroxypropan-2-yl)phosphonic acid]",100 to 1000
16,O=P(O)(O)C(CO)(COCc1nnn[nH]1)OC[C@H]1O[C@@H](c2cnn3c(NC4CCCC4)cc(Cl)nc23)[C@H](O)[C@@H]1O (stereo partly shown) [Example 38],≤ 0.5
17,"O=P(O)(O)C(CO)(COCc1nnn[nH]1)OC[C@H]1O[C@@H](c2ccc3c(NCC4CCC4)nc(Cl)nn23)[C@H](O)[C@@H]1O (stereo partly drawn) [Example 39, (1-((1H-tetrazol-5-yl)methoxy)-2-(((2R,3S,4R,5S)-5-(2-chloro-4-((cyclobutylmethyl)amino)pyrrolo[2,1-f][1,2,4]triazin-7-yl)-3,4-dihydroxytetrahydrofuran-2-yl)methoxy)-3-hydroxypropan-2-yl)phosphonic acid]",≤ 0.5
18,"O=P(O)(O)[C@](CO)(COCc1nn[nH]n1)OC[C@H]1O[C@@H](c2ccc3c(N[C@@H]4CCc5ccccc54)nc(Cl)nn23)[C@H](O)[C@@H]1O [Example 40, ((R)-1-((2H-tetrazol-5-yl)methoxy)-2-(((2R,3S,4R,5S)-5-(2-chloro-4-(((R)-2,3-dihydro-1H-inden-l-yl)amino)pyrrolo[2,1-f][1,2,4]triazin-7-yl)-3,4-dihydroxytetrahydrofuran-2-yl)methoxy)-3-hydroxypropan-2-yl)phosphonic acid]",≤ 0.5
19,"O=P(O)(O)[C@@](CO)(COCc1nn[nH]n1)OC[C@H]1O[C@@H](c2ccc3c(N[C@@H]4CCc5ccccc54)nc(Cl)nn23)[C@H](O)[C@@H]1O [Example 41, ((S)-1-((2H-tetrazol-5-yl)methoxy)-2-(((2R,3S,4R,5S)-5-(2-chloro-4-(((R)-2,3-dihydro-1H-inden-l-yl)amino)pyrrolo[2,1-f][1,2,4]triazin-7-yl)-3,4-dihydroxytetrahydrofuran-2-yl)methoxy)-3-hydroxypropan-2-yl)phosphonic acid]",≤ 0.5
